Source: patent US20210130339A1, “COMPOUNDS” (GLAXOSMITHKLINE INTELLECTUAL PROPERTY DEVELOPMENT LIMITED, priority 2017, published 2021)
“And” between values parts separate entries of the source, which are not always exact repeats. Identical values can stand only once.

Molecular target: T1, recombinant full length LRRK2 (Homo sapiens, UniProt Q5S007)
T1 construct: A BacMam virus expressing full length recombinant LRRK2 was purchased from Invitrogen; host or cells: SH-SY5Y human neuroblastoma cells transduced with BacMam LRRK2 virus (MOI 50)
Test: Recombinant cellular LRRK2 AlphaScreen assay
Type: cell-based
Conditions: LRRK2 Ser935 phosphorylation, SH-SY5Y cells over-expressing recombinant full length LRRK2; read-out: pIC50 in the recombinant cellular LRRK2 AlphaScreen assay (converted)
Excerpt: b. Recombinant Cellular LRRK2 AlphaScreen Assay
To determine the activity of compounds against LRRK2 kinase activity in cells, the observed LRRK2 kinase-dependent modulation of LRRK2 Ser 935 phosphorylation (Dzamko et al., 2010, Biochem. J. 430: 405-413) was utilized to develop a quantitative 384 well plate-based immunoassay of LRRK2 Ser935 phosphorylation in the human neuroblastoma cell line SH-SY5Y, engineered to over-express recombinant full length LRRK2 protein. A BacMam virus expressing full length recombinant LRRK2 was purchased from Invitrogen and amplified by inoculation of SF-9 cells at MOI 0.3 for 4-5 days in Sf-900 III SFM medium supplemented with 3% fetal bovine serum. Infected cell cultures were then centrifuged at 2000 g for 20 minutes, viral supernatant titer determined by anti-gp64 plaque assay and stored at 4° C. Affinity-purified anti-phospho LRRK2 Ser935 sheep polyclonal antibody (Dzamko et al., 2010, Biochem. J. 430: 405-413) was biotinylated by standard methods (PerkinElmer). Anti-LRRK2 rabbit polyclonal antibody was purchased from Novus Biologicals. AlphaScreen Protein A IgG Kit (including acceptor and donor beads) was purchased from Perkin Elmer. SH-SY5Y cells were grown in DMEM/F12 medium with 10% dialysed fetal bovine serum and harvested by treatment with 0.5% trypsin-EDTA for 5 minutes at 37° C. followed by centrifugation at 1000 rpm for 4 minutes. The cell pellet was resuspended in Opti-MEM reduced serum media (Invitrogen) at 200,000 cells/ml and mixed with the BacMam LRRK2 virus at MOI=50. 50 μl cell solutions were then dispensed to each well of a 384-well plate and incubated at 37° C., 5% CO2 for 24 hours. Serial dilutions of test compounds were prepared in Opti-MEM reduced serum media (Invitrogen) and 5.6 ul transferred from compound plate to cell assay plate to achieve a top final assay concentration of 10 uM. DMSO was used in certain wells as controls. Cells were incubated at 37° C., 5% CO2 for 60 minutes. The medium was then removed and cells lysed by addition of 20 ul cell lysis buffer (Cell Signaling Technology) and incubation at 4° C. for 20 minutes. 10 ul of antibody/acceptor bead mix [(1/1000 biotinylated-pS935 LRRK2 antibody, 1/1000 total-LRRK2 antibody, 1/100 Acceptor beads in AlphaScreen detection buffer (25 mM Hepes (pH 7.4), 0.5% Triton X-100, 1 mg/ml Dextran 500 and 0.1% BSA)] was then added to each well and plates incubated for 2 hours at ambient temperature in the dark. 10 μl of donor beads solution (1/33.3 donor beads in AlphaScreen detection buffer) was then added to each well. Following incubation for a further 2 hours at ambient temperature in the dark, plates were read on an EnVision™ plate reader at emission 520-620 nm with excitation 680 nm. Dose response curve data was based on sigmoidal dose-response model.

T1 sequence (Q5S007 whole entry): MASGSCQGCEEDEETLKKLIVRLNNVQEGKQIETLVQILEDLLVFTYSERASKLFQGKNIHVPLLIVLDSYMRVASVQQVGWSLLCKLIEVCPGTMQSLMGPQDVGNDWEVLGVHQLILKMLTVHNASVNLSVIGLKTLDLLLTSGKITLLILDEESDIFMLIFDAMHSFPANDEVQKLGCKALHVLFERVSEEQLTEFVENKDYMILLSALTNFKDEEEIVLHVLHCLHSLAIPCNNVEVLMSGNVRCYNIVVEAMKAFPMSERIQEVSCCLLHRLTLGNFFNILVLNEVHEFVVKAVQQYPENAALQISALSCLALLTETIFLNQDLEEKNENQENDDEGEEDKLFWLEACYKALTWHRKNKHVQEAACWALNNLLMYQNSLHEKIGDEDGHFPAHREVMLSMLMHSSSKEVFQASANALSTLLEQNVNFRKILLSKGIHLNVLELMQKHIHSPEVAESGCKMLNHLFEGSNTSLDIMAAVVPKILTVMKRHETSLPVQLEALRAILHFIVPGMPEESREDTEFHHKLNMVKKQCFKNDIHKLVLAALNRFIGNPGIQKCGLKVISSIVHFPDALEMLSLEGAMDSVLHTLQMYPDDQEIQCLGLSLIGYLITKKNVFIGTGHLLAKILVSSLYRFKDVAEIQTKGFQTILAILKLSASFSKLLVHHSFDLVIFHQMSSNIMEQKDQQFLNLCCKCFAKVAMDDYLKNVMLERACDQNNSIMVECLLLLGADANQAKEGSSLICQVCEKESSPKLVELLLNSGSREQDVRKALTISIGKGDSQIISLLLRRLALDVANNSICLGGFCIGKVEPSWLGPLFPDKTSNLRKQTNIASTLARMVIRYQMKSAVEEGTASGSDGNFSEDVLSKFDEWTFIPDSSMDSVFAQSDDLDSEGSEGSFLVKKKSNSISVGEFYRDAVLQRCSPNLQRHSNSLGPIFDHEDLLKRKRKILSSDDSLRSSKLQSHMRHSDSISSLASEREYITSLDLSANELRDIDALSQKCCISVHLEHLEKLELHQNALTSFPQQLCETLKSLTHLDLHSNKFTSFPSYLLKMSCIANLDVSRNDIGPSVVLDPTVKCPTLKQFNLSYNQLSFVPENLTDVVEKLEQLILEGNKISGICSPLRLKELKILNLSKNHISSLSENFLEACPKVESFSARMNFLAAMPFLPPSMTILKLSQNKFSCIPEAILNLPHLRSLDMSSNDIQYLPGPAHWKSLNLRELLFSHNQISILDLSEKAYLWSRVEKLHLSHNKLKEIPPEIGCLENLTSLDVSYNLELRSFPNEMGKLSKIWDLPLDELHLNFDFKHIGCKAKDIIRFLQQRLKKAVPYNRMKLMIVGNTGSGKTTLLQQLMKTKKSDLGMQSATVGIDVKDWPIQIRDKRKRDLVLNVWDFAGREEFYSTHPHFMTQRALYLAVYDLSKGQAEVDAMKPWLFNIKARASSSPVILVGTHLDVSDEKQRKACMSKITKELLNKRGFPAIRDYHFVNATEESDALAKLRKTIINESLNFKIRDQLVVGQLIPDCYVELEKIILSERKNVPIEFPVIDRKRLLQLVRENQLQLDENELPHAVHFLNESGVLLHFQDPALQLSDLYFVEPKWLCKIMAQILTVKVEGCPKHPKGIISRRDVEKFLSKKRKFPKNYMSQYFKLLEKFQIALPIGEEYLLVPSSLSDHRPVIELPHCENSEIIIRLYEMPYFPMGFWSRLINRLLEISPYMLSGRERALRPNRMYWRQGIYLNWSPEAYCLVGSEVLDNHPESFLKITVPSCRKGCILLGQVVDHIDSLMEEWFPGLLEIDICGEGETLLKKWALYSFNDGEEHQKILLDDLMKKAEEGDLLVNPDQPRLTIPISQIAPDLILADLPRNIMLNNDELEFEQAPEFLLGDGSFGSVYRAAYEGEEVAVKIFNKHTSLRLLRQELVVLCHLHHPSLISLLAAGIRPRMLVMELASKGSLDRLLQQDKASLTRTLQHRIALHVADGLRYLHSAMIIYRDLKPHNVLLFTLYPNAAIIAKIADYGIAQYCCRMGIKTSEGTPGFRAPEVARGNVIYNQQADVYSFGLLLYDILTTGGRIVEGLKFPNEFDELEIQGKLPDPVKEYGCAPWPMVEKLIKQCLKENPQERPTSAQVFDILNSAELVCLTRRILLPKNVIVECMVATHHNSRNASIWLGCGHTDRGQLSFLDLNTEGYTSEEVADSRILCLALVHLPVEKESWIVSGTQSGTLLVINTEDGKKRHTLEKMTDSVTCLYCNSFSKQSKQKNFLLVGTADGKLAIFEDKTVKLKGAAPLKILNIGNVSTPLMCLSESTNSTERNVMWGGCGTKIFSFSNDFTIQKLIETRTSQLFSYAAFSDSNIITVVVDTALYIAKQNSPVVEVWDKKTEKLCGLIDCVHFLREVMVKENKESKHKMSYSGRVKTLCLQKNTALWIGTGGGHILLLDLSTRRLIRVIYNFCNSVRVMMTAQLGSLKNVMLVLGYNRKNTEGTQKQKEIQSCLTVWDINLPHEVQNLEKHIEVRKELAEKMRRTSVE

Row | Structure (SMILES) | IC50
1 | [2H]C1([2H])CC(c2cc3c(cnn3-c3cc(N4CCO[C@@H](CO)C4)nc(C)n3)cc2C)CC([2H])([2H])N1[C@H]1CCOC1 [Example E96, ((R)-4-(2-methyl-6-(5-methyl-6-(1-((S)-tetrahydrofuran-3-yl)piperidin-4-yl-2,2,6,6-d4)-1H-indazol-1-yl)pyrimidin-4-yl)morpholin-2-yl)methanol] | ≤ 100 nM and 100 nM
2 | COc1nc(N2CCO[C@H](CO)C2)cc(-n2ncc3cc(C)c(C4CCN(C5CCOC5)CC4F)cc32)n1 (single isomer, unassigned) [Example E123] | ≤ 10 nM
3 | COc1nc(N2CCO[C@H](CO)C2)cc(-n2ncc3cc(C)c(C4CCN(C5CCOC5)CC4F)cc32)n1 (single isomer, unassigned) [Example E121] | ≤ 10 nM
4 | COc1nc(N2CCO[C@H](CO)C2)cc(-n2ncc3cc(C)c(C4CCN(C5CCOC5)CC4F)cc32)n1 (single isomer, unassigned) [Example E122] | ≤ 10 nM
5 | COc1nc(N2CCNC(=O)C2)cc(-n2ncc3cc(C)c(C4CCN(C5CCOC5)CC4F)cc32)n1 (single isomer, unassigned) [Example E53, 4-(6-(6-(3-Fluoro-1-(tetrahydrofuran-3-yl)piperidin-4-yl)-5-methyl-1H-indazo-1-yl)-2-methoxypyrimidin-4-yl)piperazin-2-one] | ≤ 10 nM
6 | Cc1nc(N2CCO[C@H](CO)C2)cc(-n2ncc3cc(C)c(C4CCN(C5CCOC5)CC4F)cc32)n1 (single isomer, unassigned) [Example E103] | ≤ 100 nM
7 | Cc1nc(N2CCO[C@@H](CO)C2)cc(-n2ncc3cc(C)c(C4CCN(C5CCOC5)CC4F)cc32)n1 (single isomer, unassigned) [Example E101] | ≤ 100 nM
8 | Cc1nc(OC2CC(O)C2)cc(-n2ncc3cc(C)c(C4CCN(C5CCOC5)CC4)cc32)n1 (single isomer, unassigned) [Example E145, 3-((2-methyl-6-(5-methyl-6-(1-(tetrahydrofuran-3-yl)piperidin-4-yl)-1H-indazol-1-yl)pyrimidin-4-yl)oxy)cyclobutanol] | ≤ 1000 nM
9 | [2H]C1(N2CCC(c3cc4c(cnn4-c4cc(N5CCO[C@@H](CO)C5)nc(C)n4)cc3C)CC2)CCOC1 (single isomer, unassigned) [Example E36] | 158 nM
10 | Cc1nc(N[C@H]2C[C@H](O)C2)cc(-n2ncc3cc(C)c(C4CCN(C5CCOC5)CC4)cc32)n1 (single isomer, unassigned) [Example E132, trans-3-((2-methyl-6-(5-methyl-6-(1-(tetrahydrofuran-3-yl)piperidin-4-yl)-1H-indaz-ol-1-yl)pyrimidin-4-yl)amino)cyclobutanol] | ≤ 1000 nM
11 | Cc1nc(N[C@H]2CCOC2)cc(-n2ncc3cc(C)c(C4CCN(C5CCOC5)CC4)cc32)n1 (stereo partly drawn) [Example E144, 2-methyl-6-(5-methyl-6-(1-(tetrahydrofuran-3-yl)piperidin-4-yl)-1H-indazol-1-yl)-N—((S)-tetrahydrofuran-3-yl)pyrimidin-4-amine] | ≤ 1000 nM
12 | [2H]C1(N2CCC(c3cc4c(cnn4-c4cc(N5CCO[C@@H](CO)C5)nc(C)n4)cc3C)CC2)CCOC1 (single isomer, unassigned) [Example E35] | 200 nM
13 | Cc1nc(N[C@@H]2CCOC2)cc(-n2ncc3cc(C)c(C4CCN(C5CCOC5)CC4)cc32)n1 (stereo partly drawn) [Example E143, 2-methyl-6-(5-methyl-6-(1-(tetrahydrofuran-3-yl)piperidin-4-yl)-1H-indazol-1-yl)-N—((R)-tetrahydrofuran-3-yl)pyrimidin-4-amine] | ≤ 1000 nM
14 | Cc1nc(N2CCO[C@H](CO)C2)cc(-n2ncc3cc(C)c(C4CCN(C5CCOC5)CC4F)cc32)n1 (single isomer, unassigned) [Example E105] | ≤ 100 nM

Other lines, results leading:

Row | IC50 | Structure (SMILES)
15 | ≤ 100 nM | COc1nc(N2CC(C(C)O)C2)cc(-n2ncc3cc(C)c(C4CCN(C5CCOC5)CC4)cc32)n1 (single isomer, unassigned) [Example E97, 1-(1-(2-methoxy-6-(5-methyl-6-(1-(tetrahydrofuran-3-yl)piperidin-4-yl)-1H-indazol-1-yl)pyrimidin-4-yl)azetidin-3-yl)ethanol]
16 | ≤ 10 nM | COc1nc(N2CC(O)C2)cc(-n2ncc3cc(Cl)c(C4CCN(C5CCOC5)CC4)cc32)n1 (single isomer, unassigned) [Example E29, 1-(6-(5-Chloro-6-(1-(tetrahydrofuran-3-yl)piperidin-4-yl)-1H-indazol-1-yl)-2-methoxy-pyrimidin-4-yl)azetidin-3-ol]
17 | ≤ 1000 nM | Cc1nc(N2CCO[C@@H](CO)C2)cc(-n2ncc3cc(Cl)c(C4CCN(C5CCOC5)CC4)cc32)n1 (single isomer, unassigned) [Example E129]
18 | ≤ 100 nM | COc1nc(N2CC[C@H](O)C2)cc(-n2ncc3cc(C)c(C4CCN(C5CCOC5)CC4)cc32)n1 (single isomer, unassigned) [Example E17]
19 | ≤ 100 nM | Cc1nc(N2CC(C)OC(CO)C2)cc(-n2ncc3cc(C)c(C4CCN(C5CCOC5)CC4)cc32)n1 (single isomer, unassigned) [Example E60, (6-Methyl-4-(2-methyl-6-(5-methyl-6-(1-(tetrahydrofuran-3-yl)piperidin-4-yl)-1H-indazol-1-yl)pyrimidin-4-yl)morpholin-2-yl)methanol]
20 | ≤ 10 nM and 5.01 nM | COc1nc(N2CC(O)C2)cc(-n2ncc3cc(C)c(C4CCN(C5CCOC5)CC4F)cc32)n1 (single isomer, unassigned) [Example E5, cis-1-(6-(6-(3-Fluoro-1-(tetrahydrofuran-3-yl)piperidin-4-yl)-5-methyl-1H-indazol-1-yl)-2-methoxypyrimidin-4-yl)azetidin-3-ol]
21 | ≤ 1000 nM | COc1nc(N2CC(C(C)O)C2)cc(-n2ncc3cc(C)c(C4CCN(C5CCOC5)CC4)cc32)n1 (single isomer, unassigned) [Example E100, 1-(1-(2-methoxy-6-(5-methyl-6-(1-(tetrahydrofuran-3-yl)piperidin-4-yl)-1H-indazol-1-yl)pyrimidin-4-yl)azetidin-3-yl)ethanol]
22 | ≤ 100 nM | COc1nc(N2CC[C@@H](O)C2)cc(-n2ncc3cc(C)c(C4CCN(C5CCOC5)CC4)cc32)n1 (single isomer, unassigned) [Example E19]
23 | ≤ 100 nM | COc1nc(N2CCOC(C(C)O)C2)cc(-n2ncc3cc(C)c(C4CCN(C5CCOC5)CC4)cc32)n1 (single isomer, unassigned) [Example E21, 1-(4-(2-Methoxy-6-(5-methyl-6-(1-(tetrahydrofuran-3-yl)piperidin-4-yl)-1H-indazol-1-yl)pyrimidin-4-yl)morpholin-2-yl)ethanol]
24 | ≤ 100 nM | COc1nc(N2CC(C(C)O)C2)cc(-n2ncc3cc(C)c(C4CCN(C5CCOC5)CC4)cc32)n1 (single isomer, unassigned) [Example E98, 1-(1-(2-methoxy-6-(5-methyl-6-(1-(tetrahydrofuran-3-yl)piperidin-4-yl)-1H-indazol-1-yl)pyrimidin-4-yl)azetidin-3-yl)ethanol]
25 | ≤ 100 nM | COc1nc(N2CC(C)(O)C2)cc(-n2ncc3cc(C)c(C4CCN(C5CCOC5)CC4)cc32)n1 (single isomer, unassigned) [Example E11, 1-(2-Methoxy-6-(5-methyl-6-(1-(tetrahydrofuran-3-yl)piperidin-4-yl)-1H-indazol-1-yl)pyrimidin-4-yl)-3-methylazetidin-3-ol]
26 | ≤ 1000 nM | COc1nc(N2CC(C(C)O)C2)cc(-n2ncc3cc(C)c(C4CCN(C5CCOC5)CC4)cc32)n1 (single isomer, unassigned) [Example E99, 1-(1-(2-methoxy-6-(5-methyl-6-(1-(tetrahydrofuran-3-yl)piperidin-4-yl)-1H-indazol-1-yl)pyrimidin-4-yl)azetidin-3-yl)ethanol]
27 | ≤ 100 nM | Cc1nc(N2CC(CC(C)O)C2)cc(-n2ncc3cc(Cl)c(C4CCN(C5CCOC5)CC4)cc32)n1 (single isomer, unassigned) [Example E44, 1-(1-(6-(5-Chloro-6-(1-(tetrahydrofuran-3-yl)piperidin-4-yl)-1H-indazol-1-yl)-2-methylpyr-imidin-4-yl)azetidin-3-yl)propan-2-ol]
